Test results taken from patent publication US20120142771A1, “BIPHENYLACETAMIDE DERIVATIVE” (Dainippon Sumitomo Pharma Co., Ltd., priority 2008, published 2012).
Where two headings read alike, the source gives them in different places.

Experiments:
[1] = system: maximum electroshock seizure (MES) model; experiment: Maximum electroshock seizure (MES) model test; format: in vivo, mice; details: for responders at 50 mg/kg / responders at 100 mg/kg: Mus musculus, po, 1 h, inhibition of hind limb extension; for anticonvulsant action in maximum electroshock seizure (MES) model test: mice, oral 50 or 100 mg/kg, 1 hour after administration
Method in brief: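 Male Slc: ddY mice (3 per group, 20-30 g) received compound orally at 50 or 100 mg/kg; controls got 0.5% tragacanth or 0.5% methylcellulose. One hour post-dose, corneal stimulation (60 Hz, 25 mA, 0.2 s) induced tonic hind-limb extensor convulsion.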

[2] = system: subcutaneously pentetrazol-injected model (scPTZ); experiment: Subcutaneously pentetrazol-injected model (scPTZ) test; format: in vivo, mice; details: for responders at 50 mg/kg / responders at 100 mg/kg: Mus musculus, po, 1 h; for anticonvulsant action in subcutaneously pentetrazol-injected model (scPTZ) test: mice, oral 50 or 100 mg/kg
Method in brief: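 Male Slc:ddY mice (20-30 g, 3 per group) dosed orally at 50 or 100 mg/kg; pentetrazol 85 mg/kg given subcutaneously 1 h later. Controls received 0.5% tragacanth or 0.5% methylcellulose vehicle.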

[3] = 50 mg/kg oral, Slc: ddY male mice, 3 per group, electrical stimulation 1 hour after administration, read-out: MES (positive number/tested number) (converted)
[4] = 100 mg/kg oral, Slc: ddY male mice, 3 per group, electrical stimulation 1 hour after administration, read-out: MES (positive number/tested number) (converted)
[5] = 50 mg/kg oral, Slc: ddY male mice, 3 per group, pentetrazol 85 mg/kg s.c. after 1 hour, observed 30 minutes for clonic convulsion, read-out: scPTZ (positive number/tested number) (converted)
[6] = 100 mg/kg oral, Slc: ddY male mice, 3 per group, pentetrazol 85 mg/kg s.c. after 1 hour, observed 30 minutes for clonic convulsion, read-out: scPTZ (positive number/tested number) (converted)
[7] = pentetrazol 85 mg/kg s.c. after 1 hour
[8] = read-out: MES (positive number/tested number), 50 mg/kg oral, Slc: ddY male mice, 3 per group, electrical stimulation 1 hour after administration
[9] = read-out: MES (positive number/tested number), 100 mg/kg oral, Slc: ddY male mice, 3 per group, electrical stimulation 1 hour after administration
[10] = read-out: scPTZ (positive number/tested number), 50 mg/kg oral, Slc: ddY male mice, 3 per group, pentetrazol 85 mg/kg s.c. after 1 hour, observed 30 minutes for clonic convulsion
[11] = read-out: scPTZ (positive number/tested number), 100 mg/kg oral, Slc: ddY male mice, 3 per group, pentetrazol 85 mg/kg s.c. after 1 hour, observed 30 minutes for clonic convulsion

Structure (SMILES)	responders at 50 mg/kg [1, 3]	responders at 100 mg/kg [1, 4]	responders at 50 mg/kg [2, 5]	responders at 100 mg/kg [2, 6]	further results
NC(=O)Cc1ccc(Cl)cc1-c1ccccc1F [Example 125, 2-(5-chloro-2′-fluorobiphenyl-2-yl)acetamide]	66.7%	100%	33.3%	66.7%	
CNC(=O)Cc1ccc(Cl)cc1-c1ccccc1F [Example 126, 2-(5-chloro-2′-fluorobiphenyl-2-yl)-N-methylacetamide]	0%	66.7%	66.7%	100%	
NC(=O)Cc1ccc(Cl)cc1-c1cccc(Cl)c1 [Example 127]		66.7%		33.3%	
CNC(=O)Cc1ccc(Cl)cc1-c1cccc(Cl)c1 [Example 128]		66.7%		0%	
NC(=O)Cc1cc(Cl)ccc1-c1ccc(F)cc1 [Example 129]		100%		33.3%	
CNC(=O)Cc1cc(Cl)ccc1-c1ccc(F)cc1 [Example 130]		100%		0%	
NC(=O)Cc1cc(F)ccc1-c1ccc(Cl)cc1 [Example 131]		100%		0%	
CNC(=O)Cc1cc(F)ccc1-c1ccc(Cl)cc1 [Example 132]		100%		0%	
NC(=O)Cc1cc(F)ccc1-c1cccc(F)c1 [Example 133]		100%		33.3%	
CNC(=O)Cc1cc(F)ccc1-c1cccc(F)c1 [Example 134]		100%		0%	
NC(=O)Cc1cc(F)ccc1-c1ccc(C(F)(F)F)cc1 [Example 135]		100%		0%	
CNC(=O)Cc1cc(F)ccc1-c1ccc(C(F)(F)F)cc1 [Example 136]		100%		0%	
NC(=O)Cc1cc(C(F)(F)F)ccc1-c1ccc(Cl)cc1 [Example 137]		0%		66.7%	
CNC(=O)Cc1cc(C(F)(F)F)ccc1-c1ccc(Cl)cc1 [Example 138]		0%		66.7%	
NC(=O)Cc1cc(Cl)ccc1-c1cccc(F)c1 [Example 139]		66.7%		33.3%	
NC(=O)Cc1c(F)cccc1-c1cccc(F)c1 [Example 140, 2-(3,3′-difluorobiphenyl-2-yl)acetamide]	100%	100%	66.7%	66.7%	anticonvulsant action in maximum electroshock seizure (MES) model test [1]: anticonvulsant action was observed; anticonvulsant action in subcutaneously pentetrazol-injected model (scPTZ) test [2, 7]: anticonvulsant action was observed
CNC(=O)Cc1c(F)cccc1-c1cccc(F)c1 [Example 141]		66.7%		0%	
NC(=O)Cc1cc(Cl)ccc1-c1ccc(C(F)(F)F)cc1 [Example 142, 2-[4-chloro-4′-(trifluoromethyl)biphenyl-2-yl]acetamide]	33.3%	66.7%	100%	66.7%	
CNC(=O)Cc1cc(Cl)ccc1-c1ccc(C(F)(F)F)cc1 [Example 143]		0%		100%	
NC(=O)Cc1cc(C(F)(F)F)ccc1-c1cccc(F)c1 [Example 144]		33.3%		66.7%	
CC(C)(C)NC(=O)Cc1ccccc1-c1ccccc1F [Example 145]		0%		33.3%	

Structure (SMILES)	responders at 50 mg/kg [1, 3]	responders at 100 mg/kg [1, 4]	responders at 50 mg/kg [2, 5]	responders at 100 mg/kg [2, 6]	further results
CNC(=O)Cc1cc(F)c(F)cc1-c1cccc(F)c1 [Example 148]		0%		33.3%	
NC(=O)Cc1ccc(C(F)(F)F)cc1-c1cccc(F)c1 [Example 149, 2-[3′-fluoro-5-(trifluoromethyl)biphenyl-2-yl]acetamide]	33.3%	66.7%	0%	66.7%	
NC(=O)Cc1ccc(F)cc1-c1cc(Cl)cc(Cl)c1 [Example 150, 2-(3′,5′-dichloro-5-fluorobiphenyl-2-yl)acetamide]	100%	100%	33.3%	100%	
CNC(=O)Cc1ccc(F)cc1-c1cc(Cl)cc(Cl)c1 [Example 151]		66.7%		0%	
NC(=O)Cc1ccccc1-c1cc(F)ccc1F [Example 152, 2-(2′,5′-difluorobiphenyl-2-yl)acetamide]	100%	100%	66.7%	100%	anticonvulsant action in maximum electroshock seizure (MES) model test [1]: anticonvulsant action was observed; anticonvulsant action in subcutaneously pentetrazol-injected model (scPTZ) test [2, 7]: anticonvulsant action was observed
NC(=O)Cc1ccccc1-c1cc(F)cc(F)c1 [Example 153, 2-(3′,5′-difluorobiphenyl-2-yl)acetamide]	0%	66.7%	0%	100%	
NC(=O)Cc1ccccc1-c1ccc(F)cc1F [Example 154]	33.3%	100%		33.3%	
NC(=O)C1(c2ccccc2-c2ccccc2)CC1 [Example 155]		0%	0%	66.7%	
CNC(=O)C1(c2ccccc2-c2ccccc2)CC1 [Example 156]	0%	100%		33.3%	
CNC(=O)C1(c2ccccc2-c2ccccc2F)CC1 [Example 157, 1-(2′-fluorobiphenyl-2-yl)-N-methyl-cyclopropane-carboxamide]	33.3%	100%	66.7%	66.7%	
NC(=O)C1(c2ccccc2-c2cccc(F)c2)CC1 [Example 158]		0%		66.7%	
CNC(=O)C1(c2ccccc2-c2cccc(F)c2)CC1 [Example 159, 1-(3′-fluorobiphenyl-2-yl)-N-methyl-cyclopropane-carboxamide]	33.3%	66.7%	33.3%	66.7%	
NC(=O)C(F)c1ccccc1-c1cccc(F)c1 (centres unmarked) [Example 160, 2-fluoro-2-(3′-fluorobiphenyl-2-yl)acetamide]	33.3%	66.7%	66.7%	100%	
CNC(=O)C(F)c1ccccc1-c1cccc(F)c1 (centres unmarked) [Example 161]		66.7%		0%	
NC(=O)C(F)c1ccccc1-c1ccccc1 (centres unmarked) [Example 162, 2-(biphenyl-2-yl)-2-fluoroacetamide]					responders at 50 mg/kg [1, 8]: 100%; responders at 100 mg/kg [1, 9]: 100%; anticonvulsant action in maximum electroshock seizure (MES) model test [1]: anticonvulsant action was observed; responders at 50 mg/kg [2, 10]: 100%; responders at 100 mg/kg [2, 11]: 100%; anticonvulsant action in subcutaneously pentetrazol-injected model (scPTZ) test [2, 7]: anticonvulsant action was observed
CNC(=O)C(F)c1ccccc1-c1ccccc1 (centres unmarked) [Example 163]	33.3%	100%		0%	
NC(=O)C(F)c1ccccc1-c1ccccc1F (centres unmarked) [Example 164, 2-fluoro-2-(2′-fluorobiphenyl-2-yl)acetamide]	100%	100%		33.3%	
CNC(=O)C(F)c1ccccc1-c1ccccc1F (centres unmarked) [Example 165, 2-fluoro-2-(2′-fluorobiphenyl-2-yl)-N-methylacetamide]	66.7%	100%		33.3%	
CNC(=O)C(F)c1ccccc1-c1ccc(F)cc1 (centres unmarked) [Example 166, 2-fluoro-2-(4′-fluorobiphenyl-2-yl)-N-methylacetamide]	66.7%	100%	33.3%	66.7%	
NC(=O)C(F)c1ccccc1-c1cccc(Cl)c1 (centres unmarked) [Example 167, 2-(3′-chlorobiphenyl-2-yl)-2-fluoroacetamide]					responders at 50 mg/kg [1, 8]: 33.3%; responders at 100 mg/kg [1, 9]: 100%; responders at 50 mg/kg [2, 10]: 66.7%; responders at 100 mg/kg [2, 11]: 100%
CNC(=O)C(F)(F)c1ccccc1-c1ccccc1 [Example 168]	33.3%	100%		33.3%	
